≈ marks a conversion by molar mass, not a printed value.
These compounds were tested on Mycobacterium tuberculosis (assay: Antitubercular activity against Mycobacterium tuberculosis H37Rv assessed as bacterial growth inhibition measured after 5 days by MABA method). Details: 120 h, time 5 day.
Format: functional

| SMILES | MIC | MIC90 [µM] |
| --- | --- | --- |
| CCc1nn(-c2ccccc2)c(=O)n1N(Cc1ccccc1)Cn1nnc2ccccc21 | 3.12 µg/mL |  |
| COc1ccc(-n2ncn(Cc3cc4cc(OC)ccc4nc3Cl)c2=O)cc1 | 0.075 µM |  |
| N/N=c1\ccc2ccccc2o1 | 50 µg/mL |  |
| CCc1nn(-c2ccccc2)c(=O)n1N(Cc1ccc(O)cc1)CN(CC)CC | 6.25 µg/mL |  |
| COc1ccc(-n2ncn(Cc3cc4cc(C)ccc4nc3Cl)c2=O)cc1 | 0.077 µM |  |
| CC1=CC(C)Oc2cc(OCc3cn(Cc4cc(=O)oc5ccc(Cl)cc45)nn3)ccc21 (configuration not stated) | 6.25 µg/mL |  |
| Cc1ccc2nc(O)c(Cn3cnn(-c4ccccc4)c3=O)cc2c1 |  | 0.073 (≈ 0.0243 µg/mL) |
| CC1=CC(C)Oc2cc(OCc3cn(Cc4cc(=O)oc5ccc6ccccc6c45)nn3)ccc21 (configuration not stated) | 6.25 µg/mL |  |
| COc1ccc2nc(O)c(Cn3cnn(-c4ccccc4)c3=O)cc2c1 | 0.074 µM |  |
| O=C(O)c1cn(C2CC2)c2cc(N3CCNCC3)c(F)cc2c1=O [CIPROFLOXACIN] | 3.12 µg/mL |  |
| NC(=O)c1cnccn1 [PYRAZINAMIDE] | 3.12 µg/mL |  |

These compounds were tested on Mycobacterium tuberculosis (assay: Antitubercular activity against Mycobacterium tuberculosis H37Rv assessed as bacterial growth inhibition measured after 7 days by direct susceptibility assay). Details: 168 h, time 7 day.
Format: functional

| SMILES | MIC [µg/mL] |
| --- | --- |
| COc1c(N2CCNCC2)c(F)cc2c(=O)c(C(=O)O)cn(C3CC3)c12 | 1.56 (≈ 4.32 µM) |
| COc1c(N2CCN(Cc3cn(CCN4C(=O)/C(=N\NC(N)=O)c5cc(Cl)ccc54)nn3)CC2)c(F)cc2c(=O)c(C(=O)O)cn(C3CC3)c12 | 0.39 (≈ 0.552 µM) |
| O=C(O)c1cn(C2CC2)c2c(NO)c(N3CCN(Cc4cn(CCN5C(=O)/C(=N\O)c6ccccc65)nn4)CC3)c(F)cc2c1=O | 0.39 (≈ 0.617 µM) |
| O=C(O)c1cn(C2CC2)c2cc(N3CCN(Cc4cn(CCN5C(=O)Cc6ccccc65)nn4)CC3)c(F)cc2c1=O | 0.2 (≈ 0.35 µM) |
| O=C1C(=O)N(Cc2cn(Cc3ccc([N+](=O)[O-])c([N+](=O)[O-])c3)nn2)c2ccccc21 | 7.56 (≈ 18.5 µM) |
| CO/N=C1/C(=O)C(CCOCCOCCOCCn2cc(CN3C(=O)/C(=N/OC)c4cc(F)ccc43)nn2)c2ccccc21 (configuration not stated) | 128 (≈ 210 µM) |
| O=C1C(=O)N(Cc2cn(Cc3ccc(Br)cc3)nn2)c2ccccc21 | 8.09 (≈ 20.4 µM) |
| O=C(O)c1cn(C2CC2)c2cc(N3CCNCC3)c(F)cc2c1=O [CIPROFLOXACIN] | 3.12 (≈ 9.42 µM) |

The compounds below were run on Mycobacterium tuberculosis (assay: Antitubercular activity against Mycobacterium tuberculosis H37Rv ATCC 27294 assessed as bacterial growth inhibition measured after 5 days by MABA method). Details: H37Rv ATCC 27294, 120 h, time 5 day.
Format: functional

| SMILES | MIC |
| --- | --- |
| Cc1nc2ncccn2c1C(=O)NCc1cn(Cc2ccc(C#N)cc2)nn1 | 1.56 µg/mL |
| Cc1nc2ccccn2c1C(=O)NCc1cn(Cc2ccc(C(F)(F)F)cc2)nn1 | 1.56 µg/mL |
| C[C@H](CCC(=O)COc1cn(C[C@H]2O[C@@H](n3cnc4c(N)ncnc43)[C@@H]3OC(C)(C)O[C@@H]32)nn1)C12CCCC1C1CCC3C[C@H](O)CC[C@]3(C)C1CC2 (some centres not stated) | 4.09 µg/mL |
| COc1ccc2nc(Cl)c(C(=O)NCc3cn(CC(=O)c4ccc(F)cc4)nn3)cc2c1 | 1.6 µg/mL |
| O=C(NCc1cn(Cc2ccc(C(F)(F)F)cc2)nn1)c1cn2cccnc2n1 | 1.56 µg/mL |
| Cc1nc2ccccn2c1C(=O)NCc1cn(Cc2ccccc2F)nn1 | 1.56 µg/mL |
| Cc1nc2ccccn2c1C(=O)NCc1cn(Cc2ccc([N+](=O)[O-])cc2)nn1 | 1.56 µg/mL |
| COc1ccc2nc(Cl)c(C(=O)NCc3cn(Cc4ccccc4)nn3)cc2c1 | 1.6 µg/mL |
| Cc1ccc(Cn2cc(CNC(=O)c3cn4ccccc4n3)nn2)cc1 | 1.56 µg/mL |
| Cc1nc2ncccn2c1C(=O)NCc1cn(Cc2ccc(C(F)(F)F)cc2)nn1 | 1.56 µg/mL |
| COc1ccc(Cn2cc(CNC(=O)c3cn4ccccc4n3)nn2)cc1 | 1.56 µg/mL |
| O=C(NCc1cn(Cc2ccc([N+](=O)[O-])cc2)nn1)c1cn2cccnc2n1 | 1.56 µg/mL |
| COc1ccc(Cn2cc(CNC(=O)c3cc4cc(OC)ccc4nc3Cl)nn2)cc1 | 1.6 µg/mL |
| Cc1ccc(Cn2cc(CNC(=O)c3cn4cccnc4n3)nn2)cc1 | 1.56 µg/mL |
| O=C(NCc1cn(Cc2ccc([N+](=O)[O-])cc2)nn1)c1cn2ccccc2n1 | 1.56 µg/mL |
| COc1ccc(Cn2cc(CNC(=O)c3c(C)nc4ccccn34)nn2)cc1 | 1.56 µg/mL |
| Cc1nc2ncccn2c1C(=O)NCc1cn(Cc2ccccc2F)nn1 | 1.56 µg/mL |

| SMILES | MIC |
| --- | --- |
| COc1ccc(C(=O)Cn2cc(CNC(=O)c3cc4cc(OC)ccc4nc3Cl)nn2)cc1 | 1.6 µg/mL |
| Cc1ccc(Cn2cc(CNC(=O)c3c(C)nc4ccccn34)nn2)cc1 | 1.56 µg/mL |
| Cc1ccc(Cn2cc(CNC(=O)c3c(C)nc4ncccn34)nn2)cc1 | 1.56 µg/mL |
| COc1ccc2nc(Cl)c(C(=O)NCc3cn(Cc4ccc(C#N)cc4)nn3)cc2c1 | 1.6 µg/mL |
| COc1ccc(Cn2cc(CNC(=O)c3c(C)nc4ncccn34)nn2)cc1 | 1.56 µg/mL |
| O=C(NCc1cn(Cc2ccc(C(F)(F)F)cc2)nn1)c1cn2ccccc2n1 | 1.56 µg/mL |
| Cc1nc2ncccn2c1C(=O)NCc1cn(Cc2ccc([N+](=O)[O-])cc2)nn1 | 1.56 µg/mL |
| COc1ccc(Cn2cc(COCc3c(-c4ccc(OC)cc4)nc4ccccn34)nn2)cc1 | 1.56 µg/mL |
| O=C(NCc1cn(Cc2ccccc2F)nn1)c1cn2cccnc2n1 | 1.56 µg/mL |
| COc1ccc(-c2nc3ccccn3c2COCc2cn(Cc3ccc(C)cc3)nn2)cc1 | 1.56 µg/mL |
| COc1ccc(Cn2cc(CNC(=O)c3cn4cccnc4n3)nn2)cc1 | 1.56 µg/mL |
| O=C(NCc1cn(Cc2ccccc2F)nn1)c1cn2ccccc2n1 | 1.56 µg/mL |
| N#Cc1ccc(Cn2cc(CNC(=O)c3cn4cccnc4n3)nn2)cc1 | 1.56 µg/mL |
| COc1ccc(Cn2cc(COCc3c(-c4ccccc4F)nc4ccccn34)nn2)cc1 | 1.56 µg/mL |
| O=C(O)c1cn(C2CC2)c2cc(N3CCNCC3)c(F)cc2c1=O [CIPROFLOXACIN] | 3.12 µM |
| NC(=O)c1cnccn1 [PYRAZINAMIDE] | 3.12 µg/mL |
